One may read the IC50 as the concentration at which inhibition is half-maximal. A low value points to higher potency.

Structures can show the parent of a compound that is named as a salt. Where only a bound is given, the exact number is not on record here.

Holding throughout (type): cell-based
The test system of data set [1] is A549. As to the kind of experiment: MTS cytotoxicity testing, A549 cells. Particulars: Homo sapiens, ITK/BTK null cells. The method, then:
(§1) Cell lines: The cells were sourced from either the DSMZ (Braunschweig, Germany) or the ATCC (Middlesex, UK). They were maintained in the recommended growth medium, supplemented with 10 % fetal calf serum, antibiotics (100 U/mL penicillin and […]), 2 mM glutamine, 1 mM NaHCO3, 1 mM sodium pyruvate, and 20 mM HEPES. The cells were incubated at 37 °C in a humidified atmosphere with 5 % CO2. Cell lines were routinely verified and checked for mycoplasma contamination every two weeks to once a month.
(§2) MTS cytotoxicity testing: An MTS assay method was developed in our laboratory for routine drug screening. This technique was used to assess the cytotoxicity of compounds, and the IC50 values were determined as previously described.[27]
(In general: Tetrazolium dyes change colour on reduction, which living cells bring about.)

Data set [2] deals with HCT116. The data set can be described thus: MTS cytotoxicity testing, HCT116 cells. Particulars: Homo sapiens, HCT-116; ITK/BTK null cells. As for the experimental part:
as §1, §2

The test system of data set [3] is U2OS. As to the kind of experiment: MTS cytotoxicity testing, U2OS cells. Particulars: Homo sapiens, ITK/BTK null cells. The method, then: as §1, §2
The test system of data set [4] is Jurkat. As to the kind of experiment: MTS cytotoxicity testing, Jurkat cells. The conditions noted are these: Homo sapiens, ITK high cells. As for the experimental part: as §1, §2
Data set [5] has as its system CCRF‐CEM. As to the kind of experiment: MTS cytotoxicity testing, CCRF‐CEM cells. The conditions noted are these: Homo sapiens, ITK high cells. As for the experimental part: as §1, §2
For data set [6], the system named is MOLT‐4. The data set can be described thus: MTS cytotoxicity testing, MOLT‐4 cells. The conditions noted are these: Homo sapiens, ITK high cells. As for the experimental part:
as §1, §2

For data set [7], the system named is RAMOS. As to the kind of experiment: MTS cytotoxicity testing, RAMOS cells. The conditions noted are these: Homo sapiens, BTK high cells. As for the experimental part: as §1, §2
The test system of data set [8] is K562. The data set can be described thus: MTS cytotoxicity testing, K562 cells. The conditions noted are these: Homo sapiens, BTK high cells. The method, then: as §1, §2
A short description of data set [9]: MTS cytotoxicity testing, MRC‐5 non‐cancer cells. The conditions noted are these: human. As for the experimental part:
as §1, §2

Data set [10] can be described thus: MTS cytotoxicity testing, BJ non‐cancer cells. The conditions noted are these: human. As for the experimental part:
as §1, §2

Consider `O=S(=O)(c1cc(-c2ccccc2)cc2cccnc12)N1CCCCC1` [9a, 6‐phenyl‐8‐(piperidin‐1‐ylsulfonyl)quinoline], for which the IC50 in data set [1], in data set [2], in data set [3], in data set [4], in [5] and in [6] was over 50 µM in each case. Besides, the half-inhibitory concentration (IC50) in [7], in data set [8], in data set [9] and in [10] was over 50 µM in each case.

`O=S(=O)(c1cc(-c2cccc(Cl)c2)cc2cccnc12)N1CCCCC1` [9b, 6‐(3‐chlorophenyl)‐8‐(piperidin‐1‐ylsulfonyl)quinoline]: the IC50 in data set [1], in data set [2], in [3], in [4], in [5] and in data set [6] was over 50 µM in each case. Further, the IC50 in data set [7], in data set [8], in data set [9] and in [10] was over 50 µM in each case.

As for `O=S(=O)(c1cc(-c2ccccc2F)cc2cccnc12)N1CCCCC1` [9c, 6‐(2‐fluorophenyl)‐8‐(piperidin‐1‐ylsulfonyl)quinoline], the IC50 in data set [1] was over 50 µM; in data set [2], over 50 µM; in [3] it was over 50 µM; in data set [4], 12.7 ± 5.45 µM; in [5], over 50 µM; in data set [6], over 50 µM. The IC50 in [7], in data set [8], in data set [9] and in [10] was over 50 µM in each case.

With `O=S(=O)(c1cc(-c2ccccc2Br)cc2cccnc12)N1CCCCC1` [9d, 6‐(2‐bromophenyl)‐8‐(piperidin‐1‐ylsulfonyl)quinoline], the IC50 in data set [1] is over 50 µM; in data set [2], over 50 µM; in data set [3], over 50 µM; in data set [4], 13.5 ± 6.25 µM; in data set [5], over 50 µM; in data set [6], over 50 µM. The IC50 is 12.7 ± 3.71 µM in data set [7], over 50 µM in [8], over 50 µM in data set [9] and over 50 µM in [10].

Turning to `O=S(=O)(c1cc(-c2ccc(O)cc2)cc2cccnc12)N1CCCCC1` [9e, 4‐(8‐(piperidin‐1‐ylsulfonyl)quinolin‐6‐yl)phenol], the IC50 is over 50 µM in [1]; over 50 µM in data set [2]; over 50 µM in data set [3]; 7.43 ± 7.4 µM in [4]; 28.6 ± 7.64 µM in data set [5]; over 50 µM in data set [6]. In addition, the IC50 in data set [7] was 5.47 ± 1.71 µM; in data set [8], 5.47 ± 1.71 µM; in data set [9], over 50 µM; in data set [10] it was over 50 µM.

Turning to `O=S(=O)(c1cc(-c2ccc(O)c(F)c2)cc2cccnc12)N1CCCCC1` [9f, 2‐fluoro‐4‐(8‐(piperidin‐1‐ylsulfonyl)quinolin‐6‐yl)phenol], the half-maximal inhibitory concentration (IC50) in data set [1] was over 50 µM; in [2], over 50 µM; in [3], over 50 µM; in data set [4] it was 13 ± 6.43 µM; in data set [5], 17.1 ± 4.64 µM; in [6], over 50 µM. Moreover, the IC50 in data set [7] is 9.69 ± 2.41 µM; in data set [8], 9.69 ± 2.41 µM; in [9] it was over 50 µM; in [10] it was over 50 µM.

Consider `O=S(=O)(c1cc(-c2cc(Cl)c(O)c(Cl)c2)cc2cccnc12)N1CCCCC1` [9g, 2,6‐dichloro‐4‐(8‐(piperidin‐1‐ylsulfonyl)quinolin‐6‐yl)phenol], for which the IC50 in [1], in data set [2], in [3], in data set [4], in data set [5] and in [6] was over 50 µM each time. Moreover, the IC50 in data set [7], in data set [8], in [9] and in [10] was over 50 µM throughout.

Turning to `COc1cc(-c2cc(S(=O)(=O)N3CCCCC3)c3ncccc3c2)cc(Cl)c1O` [9h, 2‐chloro‐6‐methoxy‐4‐(8‐(piperidin‐1‐ylsulfonyl)quinolin‐6‐yl)phenol], the half-inhibitory concentration (IC50) in [1], in [2], in data set [3], in data set [4], in data set [5] and in data set [6] was over 50 µM in each case. Further, the IC50 in data set [7], in data set [8], in [9] and in data set [10] was over 50 µM throughout.

For the compound `COc1cccc(-c2cc(S(=O)(=O)N3CCCCC3)c3ncccc3c2)c1` [9i, 6‐(3‐methoxyphenyl)‐8‐(piperidin‐1‐ylsulfonyl)quinoline], the IC50 in [1] was over 50 µM; in data set [2], over 50 µM; in data set [3] it was over 50 µM; in [4] it was 8.43 ± 6.43 µM; in [5], 38.6 ± 4.64 µM; in [6], over 50 µM. Besides, the IC50 in [7], in data set [8], in data set [9] and in data set [10] was over 50 µM each time.

As to `Nc1cccc(-c2cc(S(=O)(=O)N3CCCCC3)c3ncccc3c2)c1` [9j, 3‐(8‐(piperidin‐1‐ylsulfonyl)quinolin‐6‐yl)aniline hydrochloride], the half-inhibitory concentration (IC50) in data set [1] was over 50 µM; in [2], over 50 µM; in data set [3], over 50 µM; in data set [4] it was over 50 µM; in data set [5] it was over 50 µM; in data set [6] it was 5.57 ± 7.56 µM. In addition, the IC50 in data set [7], in data set [8], in data set [9] and in data set [10] was over 50 µM each time.

Take `N#Cc1cccc(-c2cc(S(=O)(=O)N3CCCCC3)c3ncccc3c2)c1` [9k, 3‐(8‐(piperidin‐1‐ylsulfonyl)quinolin‐6‐yl)benzonitrile]: the IC50 in [1], in data set [2], in [3], in data set [4], in data set [5] and in data set [6] was over 50 µM each time. The IC50 in data set [7], in [8], in data set [9] and in data set [10] was over 50 µM throughout.

`O=S(=O)(c1cc(-c2cccc(OC(F)(F)F)c2)cc2cccnc12)N1CCCCC1` [9l, 8‐(piperidin‐1‐ylsulfonyl)‐6‐(3‐(trifluoromethoxy)phenyl)quinolone]: the IC50 in [1] is over 50 µM; in [2], over 50 µM; in data set [3], over 50 µM; in data set [4], 12.1 ± 6.43 µM; in data set [5] it was over 50 µM; in data set [6] it was over 50 µM. Also, the 50% inhibitory concentration (IC50) in data set [7], in data set [8], in data set [9] and in [10] was over 50 µM throughout.

In the case of `O=S(=O)(c1cc(-c2ccc(C(F)(F)F)cc2)cc2cccnc12)N1CCCCC1` [9m, 8‐(piperidin‐1‐ylsulfonyl)‐6‐(4‐(trifluoromethyl)phenyl)quinoline], the IC50 in data set [1] is over 50 µM; in data set [2] it was over 50 µM; in data set [3] it was over 50 µM; in [4], 11.3 ± 1.13 µM; in data set [5], over 50 µM; in [6], over 50 µM. The IC50 in [7] is 8.11 ± 1.29 µM; in [8], over 50 µM; in data set [9], over 50 µM; in data set [10] it was over 50 µM.

`O=S(=O)(c1cc(-c2ccnc(F)c2)cc2cccnc12)N1CCCCC1` [9n, 6‐(2‐fluoropyridin‐4‐yl)‐8‐(piperidin‐1‐ylsulfonyl)quinoline]: the IC50 in data set [1] was over 50 µM; in [2] it was over 50 µM; in [3], over 50 µM; in data set [4] it was over 50 µM; in data set [5] it was 19.4 ± 0.78 µM; in [6], over 50 µM. For the same compound, the half-maximal inhibitory concentration (IC50) in data set [7] was 2.76 ± 0.79 µM; in [8] it was over 50 µM; in data set [9], over 50 µM; in data set [10], over 50 µM.

Regarding `COc1cc(-c2cc(S(=O)(=O)N3CCCCC3)c3ncccc3c2)ccn1` [9o, 6‐(2‐methoxypyridin‐4‐yl)‐8‐(piperidin‐1‐ylsulfonyl)quinoline], the 50% inhibitory concentration (IC50) was over 50 µM in data set [1]; over 50 µM in data set [2]; over 50 µM in data set [3]; 11.4 ± 3.49 µM in [4]; 15.3 ± 2.25 µM in [5]; over 50 µM in [6]. The IC50 was 6.76 ± 0.79 µM in data set [7], over 50 µM in data set [8], over 50 µM in data set [9] and over 50 µM in [10].

In the case of `O=S(=O)(c1cc(-c2ccc3nc[nH]c3c2)cc2cccnc12)N1CCCCC1` [9p, 6‐(1H‐benzo[d]imidazol‐6‐yl)‐8‐(piperidin‐1‐ylsulfonyl)quinoline hydrochloride], the IC50 in data set [1] is over 50 µM; in [2], over 50 µM; in data set [3] it was over 50 µM; in data set [4] it was 21.2 ± 3.49 µM; in data set [5], 13.2 ± 1.25 µM; in [6] it was over 50 µM. In addition, the IC50 in data set [7], in data set [8], in data set [9] and in data set [10] was over 50 µM in each case.

Source of the values: PMC12128149, “Molecular Hybrids of Quinoline and Sulfonamide: Design, Synthesis and in Vitro Anticancer Studies” (ChemistryOpen, 2024).
